Key:
Experiment in all cases: relative viability vs DMSO control (72 h) (fraction); higher = more viable cells
G401 = tested on: G401
How it was run: (§1)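 A 5 µM positive control and 0.1% DMSO vehicle ran alongside sarcoma cell lines seeded in 384-well plates to reach 80–90% confluence. Serially diluted compound, 2.5 µl from source plates of 10 mM to 0.0002 mM, was added after 24 h, and the plates were held 72 h at 37 °C, 5% CO2. Relative viability was worked out from ATPLite readings as percent growth averaged over up to triplicate wells. The values were rescaled so that 1 is full and 0 is none.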

KHOS-240S = tested on: KHOS-240S
How it was run: as §1

SW1353 = tested on: SW1353
How it was run: as §1

SYO-1 = tested on: SYO-1
How it was run: as §1

SW982 = tested on: SW982
How it was run: as §1

HT1080 = tested on: HT1080
How it was run: as §1

KHOS-NP = tested on: KHOS-NP
How it was run: as §1

SW872 = tested on: SW872
How it was run: as §1

SW684 = tested on: SW684
How it was run: as §1

RD-ES = tested on: RD-ES
How it was run: as §1

A204 = tested on: A204
How it was run: as §1

SK-ES-1 = tested on: SK-ES-1
How it was run: as §1

CC(C)(O)CNc1nc(Nc2ccnc(C(F)(F)F)c2)nc(-c2cccc(C(F)(F)F)n2)n1 [Enasidenib]
Conditions	relative viability
A204, 0.00017 µM	1.12
A204, 0.00051 µM	1.08
A204, 0.00152 µM	1.11
A204, 0.00457 µM	1.08
A204, 0.01372 µM	1.1
A204, 0.04115 µM	1.11
A204, 0.1235 µM	1.1
A204, 0.3704 µM	1.11
A204, 1.111 µM	1.11
A204, 3.333 µM	0.99
A204, 10 µM	0.7231
G401, 0.00017 µM	0.984
G401, 0.00051 µM	0.973
G401, 0.00152 µM	0.984
G401, 0.00457 µM	1.03
G401, 0.01372 µM	1.025
G401, 0.04115 µM	1.01
G401, 0.1235 µM	1.05
G401, 0.3704 µM	1.02
G401, 1.111 µM	0.98
G401, 3.333 µM	0.994
G401, 10 µM	0.958
HT1080, 0.00017 µM	1.07
HT1080, 0.00051 µM	1.076
HT1080, 0.00152 µM	1.08
HT1080, 0.00457 µM	1.07
HT1080, 0.01372 µM	1.042
HT1080, 0.04115 µM	1.064
HT1080, 0.1235 µM	1.05
HT1080, 0.3704 µM	1.1
HT1080, 1.111 µM	1.16
HT1080, 3.333 µM	1.11
HT1080, 10 µM	0.978
KHOS-240S, 0.00017 µM	1.08
KHOS-240S, 0.00051 µM	1.06
KHOS-240S, 0.00152 µM	1.053
KHOS-240S, 0.00457 µM	1.06
KHOS-240S, 0.01372 µM	1.08
KHOS-240S, 0.04115 µM	1.073
KHOS-240S, 0.1235 µM	1.09
KHOS-240S, 0.3704 µM	1.09
KHOS-240S, 1.111 µM	1.09
KHOS-240S, 3.333 µM	1.081
KHOS-240S, 10 µM	0.989
KHOS-NP, 0.00017 µM	1.09
KHOS-NP, 0.00051 µM	1.1
KHOS-NP, 0.00152 µM	1.091
KHOS-NP, 0.00457 µM	1.09
KHOS-NP, 0.01372 µM	1.08
KHOS-NP, 0.04115 µM	1.08
KHOS-NP, 0.1235 µM	1.08
KHOS-NP, 0.3704 µM	1.06
KHOS-NP, 1.111 µM	1.04
KHOS-NP, 3.333 µM	1.06
KHOS-NP, 10 µM	1.05
RD-ES, 0.00017 µM	0.965
RD-ES, 0.00051 µM	1
RD-ES, 0.00152 µM	1.02
RD-ES, 0.00457 µM	1.01
RD-ES, 0.01372 µM	1.012
RD-ES, 0.04115 µM	0.9861
RD-ES, 0.1235 µM	1.01
RD-ES, 0.3704 µM	1.02
RD-ES, 1.111 µM	1.01
RD-ES, 3.333 µM	1.02
RD-ES, 10 µM	1
SK-ES-1, 0.00017 µM	1.02
SK-ES-1, 0.00051 µM	1.04
SK-ES-1, 0.00152 µM	1.03
SK-ES-1, 0.00457 µM	1.04
SK-ES-1, 0.01372 µM	1.02
SK-ES-1, 0.04115 µM	0.996
SK-ES-1, 0.1235 µM	1.02
SK-ES-1, 0.3704 µM	0.968
SK-ES-1, 1.111 µM	0.921
SK-ES-1, 3.333 µM	0.893
SK-ES-1, 10 µM	0.663
SW684, 0.00017 µM	1.22
SW684, 0.00051 µM	1.21
SW684, 0.00152 µM	1.18
SW684, 0.00457 µM	1.179
SW684, 0.01372 µM	1.19
SW684, 0.04115 µM	1.2
SW684, 0.1235 µM	1.2
SW684, 0.3704 µM	1.17
SW684, 1.111 µM	1.21
SW684, 3.333 µM	1.11
SW684, 10 µM	1.01
SW872, 0.00017 µM	1.04
SW872, 0.00051 µM	1.07
SW872, 0.00152 µM	1.08
SW872, 0.00457 µM	1.07
SW872, 0.01372 µM	1.08
SW872, 0.04115 µM	1.06
SW872, 0.1235 µM	1.06
SW872, 0.3704 µM	1.068
SW872, 1.111 µM	1.07
SW872, 3.333 µM	1.07
SW872, 10 µM	1.06
SW982, 0.00017 µM	1.04
SW982, 0.00051 µM	1.04
SW982, 0.00152 µM	1.05
SW982, 0.00457 µM	1.06
SW982, 0.01372 µM	1.05
SW982, 0.04115 µM	1.06
SW982, 0.1235 µM	1.06
SW982, 0.3704 µM	1.102
SW982, 1.111 µM	1.129
SW982, 3.333 µM	1.18
SW982, 10 µM	1.22
SW1353, 0.00017 µM	0.997
SW1353, 0.00051 µM	1.03
SW1353, 0.00152 µM	0.99
SW1353, 0.00457 µM	1.02
SW1353, 0.01372 µM	1.03
SW1353, 0.04115 µM	1.01
SW1353, 0.1235 µM	1.01
SW1353, 0.3704 µM	1.04
SW1353, 1.111 µM	0.9847
SW1353, 3.333 µM	0.994
SW1353, 10 µM	0.86
SYO-1, 0.00017 µM	0.969
SYO-1, 0.00051 µM	0.959
SYO-1, 0.00152 µM	0.987
SYO-1, 0.00457 µM	0.982
SYO-1, 0.01372 µM	0.973
SYO-1, 0.04115 µM	0.992
SYO-1, 0.1235 µM	0.996
SYO-1, 0.3704 µM	0.979
SYO-1, 1.111 µM	0.624
SYO-1, 3.333 µM	0.968
SYO-1, 10 µM	0.828

COC(=O)N[C@@H](C)CNc1nccc(-c2cn(C(C)C)nc2-c2cc(Cl)cc(NS(C)(=O)=O)c2F)n1 [Encorafenib]
Conditions	relative viability
A204, 0.00017 µM	0.99
A204, 0.00051 µM	0.991
A204, 0.00152 µM	1
A204, 0.00457 µM	0.982
A204, 0.01372 µM	0.973
A204, 0.04115 µM	0.988
A204, 0.1235 µM	1
A204, 0.3704 µM	0.96
A204, 1.111 µM	0.838
A204, 3.333 µM	0.602
A204, 10 µM	0.574
G401, 0.00017 µM	0.975
G401, 0.00051 µM	1.01
G401, 0.00152 µM	0.9948
G401, 0.00457 µM	1.01
G401, 0.01372 µM	1.02
G401, 0.04115 µM	1.06
G401, 0.1235 µM	1.04
G401, 0.3704 µM	1.01
G401, 1.111 µM	0.841
G401, 3.333 µM	0.653
G401, 10 µM	0.5834
HT1080, 0.00017 µM	1.06
HT1080, 0.00051 µM	1.09
HT1080, 0.00152 µM	1.07
HT1080, 0.00457 µM	1.08
HT1080, 0.01372 µM	1.09
HT1080, 0.04115 µM	1.08
HT1080, 0.1235 µM	1.06
HT1080, 0.3704 µM	1.08
HT1080, 1.111 µM	0.885
HT1080, 3.333 µM	0.715
HT1080, 10 µM	0.765
KHOS-240S, 0.00017 µM	0.998
KHOS-240S, 0.00051 µM	0.986
KHOS-240S, 0.00152 µM	1.01
KHOS-240S, 0.00457 µM	0.993
KHOS-240S, 0.01372 µM	0.964
KHOS-240S, 0.04115 µM	0.981
KHOS-240S, 0.1235 µM	0.991
KHOS-240S, 0.3704 µM	0.97
KHOS-240S, 1.111 µM	0.904
KHOS-240S, 3.333 µM	0.788
KHOS-240S, 10 µM	0.732
KHOS-NP, 0.00017 µM	1.01
KHOS-NP, 0.00051 µM	1.01
KHOS-NP, 0.00152 µM	1.03
KHOS-NP, 0.00457 µM	1.02
KHOS-NP, 0.01372 µM	1.01
KHOS-NP, 0.04115 µM	0.99
KHOS-NP, 0.1235 µM	1.03
KHOS-NP, 0.3704 µM	0.984
KHOS-NP, 1.111 µM	0.851
KHOS-NP, 3.333 µM	0.528
KHOS-NP, 10 µM	0.435
RD-ES, 0.00017 µM	0.93
RD-ES, 0.00051 µM	0.95
RD-ES, 0.00152 µM	0.973
RD-ES, 0.00457 µM	0.956
RD-ES, 0.01372 µM	0.935
RD-ES, 0.04115 µM	0.94
RD-ES, 0.1235 µM	0.905
RD-ES, 0.3704 µM	0.91
RD-ES, 1.111 µM	0.707
RD-ES, 3.333 µM	0.462
RD-ES, 10 µM	0.565
SK-ES-1, 0.00017 µM	0.928
SK-ES-1, 0.00051 µM	0.948
SK-ES-1, 0.00152 µM	0.972
SK-ES-1, 0.00457 µM	0.979
SK-ES-1, 0.01372 µM	0.956
SK-ES-1, 0.04115 µM	1.02
SK-ES-1, 0.1235 µM	0.982
SK-ES-1, 0.3704 µM	0.813
SK-ES-1, 1.111 µM	0.5375
SK-ES-1, 3.333 µM	0.308
SK-ES-1, 10 µM	0.394
SW684, 0.00017 µM	0.979
SW684, 0.00051 µM	1
SW684, 0.00152 µM	1.04
SW684, 0.00457 µM	1.04
SW684, 0.01372 µM	1.04
SW684, 0.04115 µM	1.04
SW684, 0.1235 µM	1.05
SW684, 0.3704 µM	1.01
SW684, 1.111 µM	0.943
SW684, 3.333 µM	0.824
SW684, 10 µM	0.834
SW872, 0.00017 µM	0.96
SW872, 0.00051 µM	0.952
SW872, 0.00152 µM	0.96
SW872, 0.00457 µM	0.902
SW872, 0.01372 µM	0.729
SW872, 0.04115 µM	0.599
SW872, 0.1235 µM	0.555
SW872, 0.3704 µM	0.524
SW872, 1.111 µM	0.459
SW872, 3.333 µM	0.335
SW872, 10 µM	0.295
SW982, 0.00017 µM	0.94
SW982, 0.00051 µM	0.946
SW982, 0.00152 µM	0.887
SW982, 0.00457 µM	0.877
SW982, 0.01372 µM	0.853
SW982, 0.04115 µM	0.828
SW982, 0.1235 µM	0.798
SW982, 0.3704 µM	0.704
SW982, 1.111 µM	0.489
SW982, 3.333 µM	0.327
SW982, 10 µM	0.308
SW1353, 0.00017 µM	1.06
SW1353, 0.00051 µM	1.09
SW1353, 0.00152 µM	1.1
SW1353, 0.00457 µM	1.08
SW1353, 0.01372 µM	1.086
SW1353, 0.04115 µM	1.08
SW1353, 0.1235 µM	1.07
SW1353, 0.3704 µM	1.1
SW1353, 1.111 µM	0.966
SW1353, 3.333 µM	0.767
SW1353, 10 µM	0.739
SYO-1, 0.00017 µM	0.988
SYO-1, 0.00051 µM	0.992
SYO-1, 0.00152 µM	0.972
SYO-1, 0.00457 µM	0.985
SYO-1, 0.01372 µM	1.003
SYO-1, 0.04115 µM	0.997
SYO-1, 0.1235 µM	1.018
SYO-1, 0.3704 µM	1.02
SYO-1, 1.111 µM	0.988
SYO-1, 3.333 µM	0.877
SYO-1, 10 µM	0.818
